Results on 17 compounds are retold here after patent publication US6271342A, “Sugar-modified cytostatics” (Bayer Aktiengesellschaft, priority 1995, dated 2001).

Counter-ions that a name gives are not always drawn. Where only a bound is given, the exact number is not on record here.

Experiment in all cases: Growth inhibition test (MTT) for cytotoxic properties
Common to all, as to conditions: Table 1b

Experiment [1] has as its system HT 29. The format is cell-based, human. An outline of the steps:
(§1)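 SW 480 and HT 29 cells in RPMI 1640 with 10% FCS were seeded at 50,000 cells/ml, grown 1 day at 37 °C, then exposed to compound added in DMSO. MTT (5 mg/ml stock) was applied after day 3 and day 6 for 5 h, and formazan absorbance was read at 540 nm. IC50 values reported.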

Experiment [2] concerns SW 480. The format is cell-based, human. The essentials:
as §1

Experiment [3] has as its system B 16 F 10. The format is cell-based, mouse. The procedure: Growth Inhibition Test for Determination of the Cytotoxic Properties of Glycoconjugates of Batracyline and of Quinolone-a
The human colon cell lines SW 480 and HT 29 (ATCC no. CCL 228 and HBT-38) and the mouse melanoma cell line B 16 F 10 were cultured in Roux dishes in RPMI 1640 medium with addition of 10% FCS. The cultures were then trypsinized and taken up in RPMI plus 10% FCS to a cell count of 50,000 cells/ml. 100 μl of cell suspension/well were introduced into a 96 microwell plate and incubated for 1 day at 37° C. in a CO2 incubating cabinet. A further 100 μl of RPMI medium and 1 μl of dimethyl sulphoxide with the test substances were then added. The growth was checked after day 3 and day 6. 40 μl of MTT solution (3-(4,5-dimethylthiazol-2-yl)-2,5-diphenyltetrazoline bromide) with an initial concentration of 5 mg/ml of H2 O were added to each microwave. The plate was incubated for 5 hours in a CO2 incubating cabinet at 37° C. The medium was then sucked off and 100 μl of i-propanol/well were added. After shaking for 30 minutes with 100 μl of H2 O, the extinction was measured at 540 nm with a Titertek Multiskan MCC/340 (Flow).

With `CO[C@H]1[C@@H](O)[C@@H](CO)O[C@@H](O[C@H]2[C@H](O)[C@@H](O)[C@H](Oc3ccc(NC(=S)NCCCC[C@@H](NC(=S)Nc4ccc(O[C@@H]5O[C@H](CO)[C@@H](O[C@@H]6O[C@H](CO)[C@H](O)[C@H](OC)[C@H]6O)[C@H](O)[C@H]5O)cc4)C(=O)NC4C=CCC5CN(c6c(F)cc7c(=O)c(C(=O)O)cn(C8CC8)c7c6Cl)CC54)cc3)O[C@@H]2CO)[C@@H]1O` (stereo partly drawn) [Example 11.18, N-{N^α,N^ε -Bis-[O-(4-O-(3'-O-methyl-β-D-galactopyranosyl)-β-D-glucopyranosyl)-4-hydroxy-phenylamino-thiocarbonyl]-D-lysyl}-quinolone-a, sodium salt], the values for the IC50 in experiment [1], in experiment [2] and in experiment [3] were 3.5 µM, 4.5 µM and 0.5 µM, respectively.
As for `CC(NC(=O)C(CCCCN)NC(=S)Nc1ccc(OC2OC(C)C(O)C(OCC(=O)O)C2O)cc1)C(=O)NC1C=CCC2CN(c3c(F)cc4c(=O)c(C(=O)O)cn(C5CC5)c4c3Cl)CC21` [Example 12.7, N-{N^α -[O-(3-O-Carboxymethyl-β-L-fucosyl)-4-hydroxy-phenylamino-thiocarbonyl]-lysyl-D-alanyl}-quinolone-a], the IC50 was over 250 µM in experiment [1], 60 µM in experiment [2] and 20 µM in experiment [3].
Turning to `COC[C@H]1O[C@@H](Oc2ccc(NC(=S)N[C@@H](CCCCN)C(=O)NC3C=CCC4CN(c5c(F)cc6c(=O)c(C(=O)O)cn(C7CC7)c6c5Cl)CC43)cc2)[C@H](O)[C@@H](OC)[C@H]1O` (stereo partly drawn) [Example 12.9, N-{N^α -[O-(3,6-Di-O-methyl-β-D-galactopyranosyl)-4-hydroxy-phenylamino-thiocarbonyl]-lysyl}-quinolone-a, hydrochloride], the values for the IC50 in experiment [1], in experiment [2] and in experiment [3] were 8 µM, 4 µM and 2 µM, respectively.
Regarding `CO[C@@H]1[C@H](O)[C@@H](Oc2ccc(NC(=S)N[C@@H](CCCCN)C(=O)NC3C=CCC4CN(c5c(F)cc6c(=O)c(C(=O)O)cn(C7CC7)c6c5Cl)CC43)cc2)O[C@H](CO)[C@H]1O` (stereo partly drawn) [Example 12.10, N-{N^α -[O-(3-O-Methyl-α-D-mannopyranosyl)-4-hydroxy-phenylamino-thio-carbonyl]-lysyl}-quinolone-a, hydrochloride], the IC50 in experiment [1] worked out at 15 µM; in experiment [2] it was 15 µM; in experiment [3], 4 µM.
`COC1C(O)C(CO)OC(OC2C(CO)OC(Oc3ccc(NC(=S)NC(CCCCN)C(=O)NC4C=CCC5CN(c6c(F)cc7c(=O)c(C(=O)O)cn(C8CC8)c7c6Cl)CC54)cc3)C(O)C2O)C1O` [Example 12.11, N-{N^α -[O-(4-O-(3'-O-Methyl-β-D-galactopyranosyl)-β-D-glucopyranosyl)-4-hydroxy-phenylamino-thiocarbonyl]-lysyl}-quinolone-a hydrochloride]: the IC50 came to 2 µM in experiment [1], 2 µM in experiment [2] and 0.5 µM in experiment [3].
Regarding `COC1C(O)C(C)OC(Oc2ccc(NC(=S)NC3C=CCC4CN(c5c(F)cc6c(=O)c(C(=O)O)cn(C7CC7)c6c5Cl)CC43)cc2)C1O` [Example 12.13, N-[O-(3-O-Methyl-β-L-fucosyl)-4-hydroxy-phenylamino-thiocarbonyl]-quin olone-a], the results for the IC50 in experiment [1], in experiment [2] and in experiment [3] were 100 µM, 35 µM and 1 µM, respectively.
`COC1C(O)C(C)OC(Oc2ccc(NC(=S)NC(CN)C(=O)NC3C=CCC4CN(c5c(F)cc6c(=O)c(C(=O)O)cn(C7CC7)c6c5Cl)CC43)cc2)C1O` [Example 12.15, N-{N^α -[O-(3-O-Methyl-β-L-fucosyl)-4-hydroxy-phenylamino-thiocarbonyl]-diamino-propionoyl)-quinolone-a, hydrochloride]: the figures for the IC50 in experiment [1], in experiment [2] and in experiment [3] were 1 µM, 0.3 µM and 0.1 µM, respectively.
As for `COC1C(O)C(C)OC(Oc2ccc(NC(=S)NC(C)C(=O)NC(Cc3ccc(N(CCCl)CCCl)cc3)C(=O)O)cc2)C1O` (stereo not drawn) [Example 16.1], the IC50 in experiment [1] came out at 100 µM; in experiment [2] it was 50 µM; in experiment [3], 200 µM.
With `COC1C(O)C(C)OC(Oc2ccc(NC(=S)NC(C)C(=O)NC(C)C(=O)NC(Cc3ccc(N(CCCl)CCCl)cc3)C(=O)O)cc2)C1O` [Example 16.2, N-{N'-[O-(3-O-Methyl-β-L-fucopyranosyl)-4-hydroxy-phenylamino-thiocarbonyl]-alanyl-alanyl}-melphalan], the results for the IC50 in experiment [1], in experiment [2] and in experiment [3] were 60 µM, 50 µM and 80 µM, respectively.
For `COc1cccc2c1C(=O)c1c(O)c3c(c(O)c1C2=O)CC(O)(C(=O)CO)CC3OC1CC(NC(=O)C(C)NC(=O)C(C)NC(=S)Nc2ccc(OC3OC(C)C(O)C(OC)C3O)cc2)C(O)C(C)O1` [Example 17.1, N-{N'-[O-(3--Methyl-β-L-fucopyranosyl)-4-hydroxy-phenylamino-thiocarbonyl]-alanyl-alanyl}-doxorubicin], the figures for the IC50 in experiment [1], in experiment [2] and in experiment [3] were 5 µM, 10 µM and 5 µM, respectively.
Turning to `COc1cccc2c1C(=O)c1c(O)c3c(c(O)c1C2=O)CC(O)(C(=O)CO)CC3OC1CC(NC(=O)C(C)NC(=O)C(CCCCNC(=S)Nc2ccc(OC3OC(C)C(O)C(OC)C3O)cc2)NC(=S)Nc2ccc(OC3OC(C)C(O)C(OC)C3O)cc2)C(O)C(C)O1` [Example 17.2, N-{N^α,N^ε -Bis-[O-(3-O-methyl-β-L-fuccopyranosyl)-4-hydroxy-phenylamino-thiocarbonyl]-D-lysyl-alanyl}-doxorubicin], the half-maximal inhibitory concentration (IC50) in experiment [1], in experiment [2] and in experiment [3] was 4 µM each time.
In the case of `CCC1(OC(=O)C(C)NC(=O)C(CCCCNC(=S)Nc2ccc(OC3OC(C)C(O)C(OC)C3O)cc2)NC(=S)Nc2ccc(OC3OC(C)C(O)C(OC)C3O)cc2)C(=O)OCc2c1cc1n(c2=O)Cc2cc3ccccc3nc2-1` [Example 18.1, 20-O-{N^α,N^ε -Bis-[O-(3-O-methyl-β-L-fucopyranosyl)-4-hydroxy-phenylamino-thiocarbonyl]-lysyl-alanyl}-camptothecin], the figures for the IC50 in experiment [1], in experiment [2] and in experiment [3] were 0.01 µM, 0.03 µM and 0.2 µM, respectively.
Turning to `CCC1(OC(=O)C(C)NC(=O)C(CCCCN)NC(=S)Nc2ccc(OC3OC(C)C(O)C(OCC(=O)O)C3O)cc2)C(=O)OCc2c1cc1n(c2=O)Cc2cc3ccccc3nc2-1` (stereo not drawn) [Example 18.2, 20-O-{N^α -[O-(3-O-Carboxymethyl-β-fucopyranosyl)-4hydroxy-phenylamino-thiocarbonyl]-lysyl-alanyl}-camptothecin], the half-inhibitory concentration (IC50) in experiment [1] worked out at 0.02 µM; in experiment [2], 0.02 µM; in experiment [3], 0.2 µM.
Turning to `CCC1(OC(=O)C(C)NC(=O)C(CCCCNC(=S)Nc2ccc(OC3OC(C)C(O)C(OC)C3O)cc2)NC(=S)Nc2ccc(OC3OC(C)C(O)C(OC)C3O)cc2)C(=O)OCc2c1cc1n(c2=O)Cc2cc3ccccc3nc2-1` [Example 18.4, 20-O-{N^α,N^ε -Bis-[O-(3-O-methyl-β-L-fucopyranosyl)-4-hydroxy-phenylamino-thiocarbonyl]-lysyl-D-alanyl}-camptothecin], the IC50 in experiment [1] turned out to be 0.02 µM; in experiment [2] it was 0.02 µM; in experiment [3], 0.3 µM.
Consider `CCC1(OC(=O)C(NC(=O)C(CCCCNC(=S)Nc2ccc(OC3OC(C)C(O)C(OC)C3O)cc2)NC(=S)Nc2ccc(OC3OC(C)C(O)C(OC)C3O)cc2)C(C)C)C(=O)OCc2c1cc1n(c2=O)Cc2cc3ccccc3nc2-1` [Example 18.5, 20-O-{N^α,N^ε -Bis-[O-(3-O-methyl-β-L-fucopyranosyl)-4-hydroxy-phenylamino-thiocarbonyl]-lysyl-valinyl}-camptothecin], for which the results for the IC50 in experiment [1], in experiment [2] and in experiment [3] were 0.2 µM, 0.2 µM and 1 µM, respectively.
For `CCC1(OC(=O)[C@@H](NC(=O)[C@H](CCCCN)NC(=S)Nc2ccc(O[C@H]3O[C@@H](C)[C@@H](O)[C@@H](OCC(=O)O)[C@@H]3O)cc2)C(C)C)C(=O)OCc2c1cc1n(c2=O)Cc2cc3ccccc3nc2-1` (stereo partly drawn) [Example 18.9, 20-O-{N^α [O-(3-O-Carboxymethyl-β-L-fucopyranosyl)-4-hydroxy-phenylamino-thiocarbonyl]-lysyl-valinyl}-camptothecin, hydrochloride], the IC50 in experiment [1] came out at 0.06 µM; in experiment [2], 0.08 µM; in experiment [3] it was 0.7 µM.
For the compound `CC[C@@]1(OC(=O)[C@H](C)NC(=O)[C@H](CCCCN)NC(=S)Nc2ccc(O[C@H]3O[C@@H](C)[C@@H](O)[C@@H](OC)[C@@H]3O)cc2)C(=O)OCc2c1cc1n(c2=O)Cc2cc3ccccc3nc2-1` [Example 18.14, 20-O-{N^α -[O-(3-O-Methyl-β-L-fucopyranosyl)-4-hydroxy-phenylamino-thiocarbonyl]-lysyl-alanyl}-camptothecin, hydrochloride], the IC50 is 0.01 µM in experiment [1], 0.015 µM in experiment [2] and 0.08 µM in experiment [3].

The IC50 is the concentration that inhibits the measured activity by half. Higher therefore signals weaker potency.
